Reference: patent US6352958B1, “Cycloimido-substituted benzofused heterocyclic herbicides” (FMC Corporation, priority 1997, dated 2002)

Legend:
Type in all cases: in vivo
[1] = test system: soybean (Glycine max var. Winchester); assay: Preemergence herbicidal activity, soybean; conditions: Rate of Application 0.3 Kg/Ha, examined after 12-17 days
[2] = test system: wheat (Triticum aestivum var. Lew); assay: Preemergence herbicidal activity, wheat; conditions: Rate of Application 0.3 Kg/Ha, examined after 12-17 days
[3] = test system: field corn (Zea mays var. Pioneer 3732); assay: Preemergence herbicidal activity, corn; conditions: Rate of Application 0.3 Kg/Ha, examined after 12-17 days
[4] = test system: velvetleaf (Abutilon theophrasti); assay: Preemergence herbicidal activity, velvetleaf; conditions: Rate of Application 0.3 Kg/Ha, examined after 12-17 days
[5] = test system: morningglory (Ipomea lacunosa or Ipomea hederacea); assay: Preemergence herbicidal activity, morningglory; conditions: Rate of Application 0.3 Kg/Ha, examined after 12-17 days
[6] = test system: common chickweed (Stellaria media); assay: Preemergence herbicidal activity, chickweed; conditions: Rate of Application 0.3 Kg/Ha, examined after 12-17 days
[7] = test system: green foxtail (Setaria viridis); assay: Preemergence herbicidal activity, green foxtail; conditions: Rate of Application 0.3 Kg/Ha, examined after 12-17 days
[8] = test system: Johnsongrass (Sorghum halepense); assay: Preemergence herbicidal activity, johnsongrass; conditions: Rate of Application 0.3 Kg/Ha, examined after 12-17 days
[9] = test system: soybean (Glycine max var. Winchester); assay: Postemergence herbicidal activity, soybean; conditions: rate of application 0.3 Kg/Ha, rated after 12-17 days
[10] = test system: wheat (Triticum aestivum var. Lew); assay: Postemergence herbicidal activity, wheat; conditions: rate of application 0.3 Kg/Ha, rated after 12-17 days
[11] = test system: field corn (Zea mays var. Pioneer 3732); assay: Postemergence herbicidal activity, corn; conditions: rate of application 0.3 Kg/Ha, rated after 12-17 days
[12] = test system: velvetleaf (Abutilon theophrasti); assay: Postemergence herbicidal activity, velvetleaf; conditions: rate of application 0.3 Kg/Ha, rated after 12-17 days
[13] = test system: morningglory (Ipomea lacunosa or Ipomea hederacea); assay: Postemergence herbicidal activity, morningglory; conditions: rate of application 0.3 Kg/Ha, rated after 12-17 days
[14] = test system: common chickweed (Stellaria media); assay: Postemergence herbicidal activity, chickweed; conditions: rate of application 0.3 Kg/Ha, rated after 12-17 days
[15] = test system: common cocklebur (Xanthium strumarium L.); assay: Postemergence herbicidal activity, cocklebur; conditions: rate of application 0.3 Kg/Ha, rated after 12-17 days
[16] = test system: blackgrass (Aloepecurus myosuroides); assay: Postemergence herbicidal activity, blackgrass; conditions: rate of application 0.3 Kg/Ha, rated after 12-17 days
[17] = test system: green foxtail (Setaria viridis); assay: Postemergence herbicidal activity, green foxtail; conditions: rate of application 0.3 Kg/Ha, rated after 12-17 days
[18] = test system: Johnsongrass (Sorghum halepense); assay: Postemergence herbicidal activity, johnsongrass; conditions: rate of application 0.3 Kg/Ha, rated after 12-17 days
[19] = test system: common cocklebur (Xanthium strumarium L.); assay: Preemergence herbicidal activity, cocklebur; conditions: Rate of Application 0.3 Kg/Ha, examined after 12-17 days

| SMILES | PREEMERGENCE HERBICIDAL ACTIVITY (% CONTROL) SOY [1] | PREEMERGENCE HERBICIDAL ACTIVITY (% CONTROL) WHT [2] | PREEMERGENCE HERBICIDAL ACTIVITY (% CONTROL) CRN [3] | PREEMERGENCE HERBICIDAL ACTIVITY (% CONTROL) ABUTH [4] | PREEMERGENCE HERBICIDAL ACTIVITY (% CONTROL) IPOSS [5] | PREEMERGENCE HERBICIDAL ACTIVITY (% CONTROL) STEME [6] | PREEMERGENCE HERBICIDAL ACTIVITY (% CONTROL) SETVI [7] | PREEMERGENCE HERBICIDAL ACTIVITY (% CONTROL) SORHA [8] | Postemergence herbicidal activity (% control) SOY [9] | Postemergence herbicidal activity (% control) WHT [10] | Postemergence herbicidal activity (% control) CRN [11] | Postemergence herbicidal activity (% control) ABUTH [12] | Postemergence herbicidal activity (% control) IPOSS [13] | Postemergence herbicidal activity (% control) STEME [14] | Postemergence herbicidal activity (% control) XANPE [15] | Postemergence herbicidal activity (% control) ALOMY [16] | Postemergence herbicidal activity (% control) SETVI [17] | Postemergence herbicidal activity (% control) SORHA [18] | PREEMERGENCE HERBICIDAL ACTIVITY (% CONTROL) XANPE [19] |
| --- | --- | --- | --- | --- | --- | --- | --- | --- | --- | --- | --- | --- | --- | --- | --- | --- | --- | --- | --- |
| Cc1cc2c(Cl)ccc(-n3c(=O)cc(C(F)(F)F)n(C)c3=O)c2o1 [Compound 221] | 70% | 60% | 85% | 100% | 100% | 80% | 100% | 95% | 95% | 50% | 60% | 100% | 100% | 100% | 60% | 40% | 70% | 70% |  |
| Cc1cc2c(Cl)cc(F)c(-n3c(=O)cc(C(F)(F)F)n(C)c3=O)c2o1 [Compound 222] | 100% | 70% | 90% | 100% | 100% | 100% | 100% | 100% | 100% | 70% | 90% | 100% | 100% | 100% | 100% | 100% | 100% | 100% | 100% |
| Cn1c(C(F)(F)F)cc(=O)n(-c2ccc(Cl)c3cc(C=NO)oc23)c1=O [Compound 258] | 30% | 30% | 75% | 100% | 60% | 0% | 40% | 40% | 80% | 30% | 60% | 80% | 70% | 5% | 50% | 30% | 60% | 50% | 60% |
